Reference: ChEMBL document CHEMBL1138121 (Bioorg Med Chem Lett, 2006)

Biological target: T1, Glycogen phosphorylase, muscle form (Oryctolagus cuniculus, UniProt P00489)
T1 sequence (P00489 whole entry): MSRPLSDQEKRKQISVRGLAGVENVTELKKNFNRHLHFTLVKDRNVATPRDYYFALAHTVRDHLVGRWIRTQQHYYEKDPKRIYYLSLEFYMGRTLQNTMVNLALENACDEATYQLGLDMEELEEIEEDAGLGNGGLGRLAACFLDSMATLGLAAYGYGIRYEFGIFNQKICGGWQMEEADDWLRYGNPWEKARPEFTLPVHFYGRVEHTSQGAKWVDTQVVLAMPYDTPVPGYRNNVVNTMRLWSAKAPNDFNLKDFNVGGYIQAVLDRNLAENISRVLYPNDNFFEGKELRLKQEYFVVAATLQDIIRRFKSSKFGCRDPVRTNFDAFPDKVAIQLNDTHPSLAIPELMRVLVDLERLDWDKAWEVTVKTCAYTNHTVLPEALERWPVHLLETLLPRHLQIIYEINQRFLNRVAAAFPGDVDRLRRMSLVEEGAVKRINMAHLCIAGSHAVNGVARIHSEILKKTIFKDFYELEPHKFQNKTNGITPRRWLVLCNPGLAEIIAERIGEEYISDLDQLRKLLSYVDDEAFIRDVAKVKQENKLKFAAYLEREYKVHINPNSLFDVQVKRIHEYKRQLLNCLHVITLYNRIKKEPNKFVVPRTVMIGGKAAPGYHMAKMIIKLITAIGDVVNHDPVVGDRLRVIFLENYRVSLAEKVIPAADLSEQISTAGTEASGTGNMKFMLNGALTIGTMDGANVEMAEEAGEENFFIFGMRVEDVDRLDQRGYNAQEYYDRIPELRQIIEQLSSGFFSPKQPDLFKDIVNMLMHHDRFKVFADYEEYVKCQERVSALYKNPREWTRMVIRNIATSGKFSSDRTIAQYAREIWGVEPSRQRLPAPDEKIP
Assay: Inhibitory activity against rabbit muscle GPa
Format: tissue-based, Muscle tissue

Structure (SMILES) | IC50 [µM]
CC(=O)O[C@@H]1C[C@]2(C)[C@H]3CC=C4[C@@H]5CC(C)(C)CC[C@]5(C(=O)OCc5ccccc5)CC[C@@]4(C)[C@]3(C)CC[C@H]2C(C)(C)C1=O | 29
CC1(C)CC[C@]2(C(=O)OCc3ccccc3)CC[C@]3(C)C(=CC[C@@H]4[C@@]5(C)C[C@@H](O[Si](C)(C)C(C)(C)C)[C@H](O)C(C)(C)[C@@H]5CC[C@]43C)[C@@H]2C1 | 1710
CC(=O)O[C@@H]1C[C@]2(C)[C@H]3CC=C4[C@@H]5CC(C)(C)CC[C@]5(C(=O)OCc5ccccc5)CC[C@@]4(C)[C@]3(C)CC[C@H]2C(C)(C)[C@@H]1O | 63
CC1(C)CC[C@]2(C(=O)OCCN3CCOCC3)CC[C@]3(C)C(=CC[C@@H]4[C@@]5(C)C[C@@H](O)[C@H](O)C(C)(C)[C@@H]5CC[C@]43C)[C@@H]2C1 | 43
CC1(C)CC[C@]2(C(=O)OCc3ccccc3)CC[C@]3(C)C(=CC[C@@H]4[C@@]5(C)C[C@@H](O)[C@@H](O)C(C)(C)[C@@H]5CC[C@]43C)[C@@H]2C1 | 66
CC1(C)CC[C@]2(C(=O)OCCCCN3CCCCC3)CC[C@]3(C)C(=CC[C@@H]4[C@@]5(C)C[C@@H](O)[C@H](O)C(C)(C)[C@@H]5CC[C@]43C)[C@@H]2C1 | 580
CC(=O)O[C@@H]1C[C@]2(C)[C@H]3CC=C4[C@@H]5CC(C)(C)CC[C@]5(C(=O)OCc5ccccc5)CC[C@@]4(C)[C@]3(C)CC[C@H]2C(C)(C)[C@H]1O | 80
CC1(C)CC[C@]2(C(=O)OCc3ccccc3)CC[C@]3(C)C(=CC[C@@H]4[C@@]5(C)C[C@@H](O[Si](C)(C)C(C)(C)C)[C@@H](O)C(C)(C)[C@@H]5CC[C@]43C)[C@@H]2C1 | 580
CC1(C)CC[C@]2(C(=O)OCc3ccccc3)CC[C@]3(C)C(=CC[C@@H]4[C@@]5(C)C[C@@H](O)C(=O)C(C)(C)[C@@H]5CC[C@]43C)[C@@H]2C1 | 29
CC1(C)CC[C@]2(C(=O)OCc3ccccc3)CC[C@]3(C)C(=CC[C@@H]4[C@@]5(C)C=C(O)C(=O)C(C)(C)[C@@H]5CC[C@]43C)[C@@H]2C1 | 30
CC1(C)CC[C@]2(C(=O)OCCN3CCCCC3)CC[C@]3(C)C(=CC[C@@H]4[C@@]5(C)C[C@@H](O)[C@H](O)C(C)(C)[C@@H]5CC[C@]43C)[C@@H]2C1 | 31
CC1(C)CC[C@]2(C(=O)OCCCCN3CCOCC3)CC[C@]3(C)C(=CC[C@@H]4[C@@]5(C)C[C@@H](O)[C@H](O)C(C)(C)[C@@H]5CC[C@]43C)[C@@H]2C1 | 121

Next, values leading:

IC50 [µM] | Structure (SMILES)
62 | CCN(CC)CCCCOC(=O)[C@]12CCC(C)(C)C[C@H]1C1=CC[C@@H]3[C@@]4(C)C[C@@H](O)[C@H](O)C(C)(C)[C@@H]4CC[C@@]3(C)[C@]1(C)CC2
66 | CC1(C)CC[C@]2(C(=O)OCn3cccn3)CC[C@]3(C)C(=CC[C@@H]4[C@@]5(C)C[C@@H](O)[C@H](O)C(C)(C)[C@@H]5CC[C@]43C)[C@@H]2C1
50 | CC1(C)CC[C@]2(C(=O)OCCBr)CC[C@]3(C)C(=CC[C@@H]4[C@@]5(C)C[C@@H](O)[C@H](O)C(C)(C)[C@@H]5CC[C@]43C)[C@@H]2C1
1650 | CC1(C)CC[C@]2(C(=O)OCC(=O)O)CC[C@]3(C)C(=CC[C@@H]4[C@@]5(C)C[C@@H](O)[C@H](O)C(C)(C)[C@@H]5CC[C@]43C)[C@@H]2C1
153 | CC1(C)CC[C@]2(C(=O)OCCO)CC[C@]3(C)C(=CC[C@@H]4[C@@]5(C)C[C@@H](O)[C@H](O)C(C)(C)[C@@H]5CC[C@]43C)[C@@H]2C1
19 | CCOC(=O)COC(=O)[C@]12CCC(C)(C)C[C@H]1C1=CC[C@@H]3[C@@]4(C)C[C@@H](O)[C@H](O)C(C)(C)[C@@H]4CC[C@@]3(C)[C@]1(C)CC2
7 | CC1(C)CC[C@]2(C(=O)OCCCCBr)CC[C@]3(C)C(=CC[C@@H]4[C@@]5(C)C[C@@H](O)[C@H](O)C(C)(C)[C@@H]5CC[C@]43C)[C@@H]2C1
51 | CCN(CC)CCOC(=O)[C@]12CCC(C)(C)C[C@H]1C1=CC[C@@H]3[C@@]4(C)C[C@@H](O)[C@H](O)C(C)(C)[C@@H]4CC[C@@]3(C)[C@]1(C)CC2
393 | COC(=O)[C@]12CCC(C)(C)C[C@H]1C1=CC[C@@H]3[C@@]4(C)C[C@@H](O)[C@H](O)C(C)(C)[C@@H]4CC[C@@]3(C)[C@]1(C)CC2 [MASLINIC ACID METHYL ESTER]
